Experimental data as given in ChEMBL document CHEMBL4364276, “Discovery of 4-phenyl-2H-benzo[b][1,4]oxazin-3(4H)-one derivatives as potent and orally active PI3K/mTOR dual inhibitors” (Eur J Med Chem, 2019).

Tests used:
[1] = target: Serine/threonine-protein kinase mTOR (Homo sapiens, UniProt P42345); assay: Inhibition of recombinant human N-terminal FLAG-tagged mTOR (1362 to end residues) using Ulight-4E-BP1 as substrate incubated for 30 mins by fluorescence assay
[2] = target: Serine/threonine-protein kinase DCLK1 (Homo sapiens) (UniProt O15075); assay: Inhibition of human DCAMKL1 at 100 nM using KKLNRTLSFAEPG as substrate by [gamma-33P]-ATP assay
[3] = target: cGMP-dependent protein kinase 1 (Homo sapiens) (UniProt Q13976); assay: Inhibition of human PKG1alpha at 100 nM using LRRASLG as substrate by [gamma-33P]-ATP assay
[4] = target: Receptor-interacting serine/threonine-protein kinase 3 (Homo sapiens) (UniProt Q9Y572); assay: Inhibition of human RIPK3 at 100 nM using MBP as substrate by [gamma-33P]-ATP assay
[5] = target: 3-phosphoinositide-dependent protein kinase 1 (Homo sapiens) (UniProt O15530); assay: Inhibition of human PDK1/PDPk1 at 100 nM using [KTFCGTPEYLAPEVRREPRILSEEEQEMFRDFDYIADWC as substrate by [gamma-33P]-ATP assay
[6] = target: CDK18/Cyclin Y (Homo sapiens) (UniProt Q07002+Q8ND76); assay: Inhibition of human CDK18/cyclin-Y at 100 nM using RB protein as substrate by [gamma-33P]-ATP assay; assay type: protein-complex assay
[7] = target: Activated CDC42 kinase 1 (Homo sapiens) (UniProt Q07912); assay: Inhibition of human ACK1 at 100 nM using EAIYAAPFAKKK as substrate by [gamma-33P]-ATP assay
[8] = target: CDC7/DBF4 (Cell division cycle 7-related protein kinase/Activator of S phase kinase) (Homo sapiens) (UniProt Q9UBU7+O00311); assay: Inhibition of human CDC7/DBF4 at 100 nM using KTFCGTPEYLAPEVRREPRILSEEEQEMFRDFDYIADWC as substrate by [gamma-33P]-ATP assay; assay type: protein-complex assay
[9] = target: Tyrosine-protein kinase Fer (Homo sapiens) (UniProt P16591); assay: Inhibition of human FER at 100 nM using poly[Glu:Tyr] (4:1) as substrate by [gamma-33P]-ATP assay
Tyrosine-protein kinase Fer (Homo sapiens), sequence (P16591 whole entry, looked up): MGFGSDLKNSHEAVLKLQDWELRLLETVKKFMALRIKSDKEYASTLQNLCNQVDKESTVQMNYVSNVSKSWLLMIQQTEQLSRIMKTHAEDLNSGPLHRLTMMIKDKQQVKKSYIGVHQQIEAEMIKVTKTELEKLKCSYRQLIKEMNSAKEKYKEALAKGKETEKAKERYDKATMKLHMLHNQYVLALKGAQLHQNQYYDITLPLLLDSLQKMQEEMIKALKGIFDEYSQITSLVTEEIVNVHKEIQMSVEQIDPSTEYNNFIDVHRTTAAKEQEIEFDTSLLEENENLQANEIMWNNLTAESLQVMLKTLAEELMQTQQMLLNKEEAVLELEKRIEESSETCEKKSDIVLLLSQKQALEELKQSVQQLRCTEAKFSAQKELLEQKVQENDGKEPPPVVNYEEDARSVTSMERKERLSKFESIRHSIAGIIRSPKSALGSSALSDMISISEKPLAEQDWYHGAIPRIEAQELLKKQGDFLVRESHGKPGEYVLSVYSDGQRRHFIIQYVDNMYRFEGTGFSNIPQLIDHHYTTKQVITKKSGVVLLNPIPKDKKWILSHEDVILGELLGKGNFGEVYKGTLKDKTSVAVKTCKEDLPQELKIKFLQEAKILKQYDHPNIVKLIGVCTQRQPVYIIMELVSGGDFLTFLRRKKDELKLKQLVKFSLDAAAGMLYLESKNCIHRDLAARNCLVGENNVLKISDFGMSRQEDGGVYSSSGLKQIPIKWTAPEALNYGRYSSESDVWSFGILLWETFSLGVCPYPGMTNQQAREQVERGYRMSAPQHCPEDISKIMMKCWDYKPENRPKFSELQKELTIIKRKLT

[10] = target: Serine/threonine-protein kinase PLK4 (Homo sapiens) (UniProt O00444); assay: Inhibition of human PLK4 at 100 nM using casein as substrate by [gamma-33P]-ATP assay
[11] = target: Mitogen-activated protein kinase 3 (Homo sapiens) (UniProt P27361); assay: Inhibition of human ERK1 at 100 nM using MBP as substrate by [gamma-33P]-ATP assay
Mitogen-activated protein kinase 3 (Homo sapiens), sequence (P27361 whole entry): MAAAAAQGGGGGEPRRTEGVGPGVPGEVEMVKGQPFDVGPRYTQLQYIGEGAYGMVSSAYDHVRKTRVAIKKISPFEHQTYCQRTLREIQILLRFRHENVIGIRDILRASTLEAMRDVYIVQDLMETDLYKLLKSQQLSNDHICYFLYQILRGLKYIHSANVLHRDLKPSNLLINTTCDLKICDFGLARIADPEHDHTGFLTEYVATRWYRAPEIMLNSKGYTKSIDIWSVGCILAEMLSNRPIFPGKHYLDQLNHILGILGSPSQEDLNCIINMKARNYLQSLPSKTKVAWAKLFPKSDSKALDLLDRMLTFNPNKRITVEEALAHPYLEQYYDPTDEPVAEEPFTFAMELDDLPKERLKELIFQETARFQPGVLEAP

[12] = target: Serine/threonine-protein kinase/endoribonuclease IRE2 (Homo sapiens) (UniProt Q76MJ5); assay: Inhibition of human ERN2 at 100 nM using MBP as substrate by [gamma-33P]-ATP assay
[13] = target: Tyrosine-protein kinase ABL2 (Homo sapiens) (UniProt P42684); assay: Inhibition of human ABL2 at 100 nM using EAIYAAPFAKKK as substrate by [gamma-33P]-ATP assay
[14] = target: Ribosomal protein S6 kinase beta-1 (Homo sapiens) (UniProt P23443); assay: Inhibition of human p70S6K at 100 nM using KKRNRTLTK as substrate by [gamma-33P]-ATP assay
[15] = target: Epidermal growth factor receptor (Homo sapiens) (UniProt P00533); assay: Inhibition of human EGFR at 100 nM using poly[Glu:Tyr] (4:1) as substrate by [gamma-33P]-ATP assay
Epidermal growth factor receptor (Homo sapiens), sequence (P00533 whole entry): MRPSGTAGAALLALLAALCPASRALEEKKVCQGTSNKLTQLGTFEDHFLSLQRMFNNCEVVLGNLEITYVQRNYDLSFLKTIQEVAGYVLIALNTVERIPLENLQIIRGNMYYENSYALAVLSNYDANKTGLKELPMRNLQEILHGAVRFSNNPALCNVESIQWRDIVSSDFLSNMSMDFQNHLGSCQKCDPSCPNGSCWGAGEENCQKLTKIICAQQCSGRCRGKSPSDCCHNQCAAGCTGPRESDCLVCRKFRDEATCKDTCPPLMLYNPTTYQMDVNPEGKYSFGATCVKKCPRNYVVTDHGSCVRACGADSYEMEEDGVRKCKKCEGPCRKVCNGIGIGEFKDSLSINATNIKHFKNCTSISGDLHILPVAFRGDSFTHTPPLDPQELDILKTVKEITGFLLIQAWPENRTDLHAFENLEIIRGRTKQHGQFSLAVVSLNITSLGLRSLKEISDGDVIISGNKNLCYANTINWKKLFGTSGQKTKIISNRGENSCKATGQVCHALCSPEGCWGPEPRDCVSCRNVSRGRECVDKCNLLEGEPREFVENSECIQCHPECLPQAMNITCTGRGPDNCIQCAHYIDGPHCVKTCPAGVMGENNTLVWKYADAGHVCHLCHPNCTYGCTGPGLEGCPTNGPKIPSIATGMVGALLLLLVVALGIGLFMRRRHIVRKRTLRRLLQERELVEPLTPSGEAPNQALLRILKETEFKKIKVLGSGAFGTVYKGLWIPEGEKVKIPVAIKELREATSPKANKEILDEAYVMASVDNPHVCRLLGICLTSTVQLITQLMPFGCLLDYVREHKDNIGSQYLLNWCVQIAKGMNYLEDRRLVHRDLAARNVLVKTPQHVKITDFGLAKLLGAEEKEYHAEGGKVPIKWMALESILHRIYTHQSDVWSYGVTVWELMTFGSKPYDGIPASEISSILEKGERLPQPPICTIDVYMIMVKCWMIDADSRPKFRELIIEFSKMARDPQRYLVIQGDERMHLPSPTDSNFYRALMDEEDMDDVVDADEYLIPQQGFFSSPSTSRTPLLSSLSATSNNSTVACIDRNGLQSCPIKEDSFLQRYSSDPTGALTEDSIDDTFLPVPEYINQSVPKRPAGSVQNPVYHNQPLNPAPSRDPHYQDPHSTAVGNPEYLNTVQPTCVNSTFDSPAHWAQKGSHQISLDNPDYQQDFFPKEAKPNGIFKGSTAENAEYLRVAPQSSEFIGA

[16] = target: Cyclin-dependent kinase 4/cyclin D1 (Homo sapiens) (UniProt P11802+P24385); assay: Inhibition of human CDK4/cyclin-D1 at 100 nM using RB protein as substrate by [gamma-33P]-ATP assay; assay type: protein-complex assay
[17] = Inhibition of PI3K/Akt/mTOR signaling in human HeLa cells assessed as reduction in S6 phosphorylation incubated for 24 hrs by Western blot analysis; assay type: cell-based
[18] = target: Serine/threonine-protein kinase LATS1 (Homo sapiens) (UniProt O95835); assay: Inhibition of human LATS1 at 100 nM using KKRNRRLSVA as substrate by [gamma-33P]-ATP assay
[19] = target: Calcium/calmodulin-dependent protein kinase type II subunit beta (Homo sapiens) (UniProt Q13554); assay: Inhibition of human CAMK2B at 100 nM using KKALRRQETVDAL as substrate by [gamma-33P]-ATP assay
[20] = target: Aurora kinase C (Homo sapiens) (UniProt Q9UQB9); assay: Inhibition of human Aurora C at 100 nM using [H-LRRASLG] as substrate by [gamma-33P]-ATP assay
Aurora kinase C (Homo sapiens), sequence (Q9UQB9 whole entry): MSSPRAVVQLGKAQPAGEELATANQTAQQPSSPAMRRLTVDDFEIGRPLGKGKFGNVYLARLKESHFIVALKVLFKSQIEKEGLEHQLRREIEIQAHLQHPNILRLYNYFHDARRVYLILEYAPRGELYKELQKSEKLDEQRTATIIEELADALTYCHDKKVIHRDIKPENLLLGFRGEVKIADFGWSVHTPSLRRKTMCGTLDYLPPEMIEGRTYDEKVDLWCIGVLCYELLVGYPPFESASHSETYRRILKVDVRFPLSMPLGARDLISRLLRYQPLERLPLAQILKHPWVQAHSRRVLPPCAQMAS

[21] = target: G protein-coupled receptor kinase 4 (Homo sapiens) (UniProt P32298); assay: Inhibition of human GRK4 at 100 nM using casein as substrate by [gamma-33P]-ATP assay
G protein-coupled receptor kinase 4 (Homo sapiens), sequence (P32298 whole entry, looked up): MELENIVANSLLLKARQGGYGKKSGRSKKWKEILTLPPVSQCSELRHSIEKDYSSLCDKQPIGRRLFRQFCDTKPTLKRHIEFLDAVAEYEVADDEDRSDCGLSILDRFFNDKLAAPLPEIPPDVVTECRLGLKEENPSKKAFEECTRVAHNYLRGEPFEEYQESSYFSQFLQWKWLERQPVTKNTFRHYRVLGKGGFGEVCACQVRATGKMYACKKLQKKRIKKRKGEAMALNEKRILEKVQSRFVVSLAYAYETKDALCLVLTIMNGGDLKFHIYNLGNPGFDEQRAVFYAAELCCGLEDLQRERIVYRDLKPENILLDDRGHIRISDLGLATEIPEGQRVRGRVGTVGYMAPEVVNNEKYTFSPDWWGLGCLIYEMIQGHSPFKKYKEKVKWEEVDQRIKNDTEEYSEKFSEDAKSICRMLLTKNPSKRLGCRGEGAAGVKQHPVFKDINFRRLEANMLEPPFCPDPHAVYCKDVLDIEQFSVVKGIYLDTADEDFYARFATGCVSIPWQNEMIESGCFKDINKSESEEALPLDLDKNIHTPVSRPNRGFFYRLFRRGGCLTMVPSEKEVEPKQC

[22] = target: [Pyruvate dehydrogenase (acetyl-transferring)] kinase isozyme 1, mitochondrial (Homo sapiens) (UniProt Q15118); assay: Inhibition of human PDK1 at 100 nM using MBP as substrate by [gamma-33P]-ATP assay
[23] = target: CDK3/Cyclin E (Homo sapiens) (UniProt P24864+Q00526); assay: Inhibition of human CDK3/cyclin-E at 100 nM using histone H1 as substrate by [gamma-33P]-ATP assay; assay type: protein-complex assay
CDK3/Cyclin E (Homo sapiens), sequence (P24864 whole entry, looked up): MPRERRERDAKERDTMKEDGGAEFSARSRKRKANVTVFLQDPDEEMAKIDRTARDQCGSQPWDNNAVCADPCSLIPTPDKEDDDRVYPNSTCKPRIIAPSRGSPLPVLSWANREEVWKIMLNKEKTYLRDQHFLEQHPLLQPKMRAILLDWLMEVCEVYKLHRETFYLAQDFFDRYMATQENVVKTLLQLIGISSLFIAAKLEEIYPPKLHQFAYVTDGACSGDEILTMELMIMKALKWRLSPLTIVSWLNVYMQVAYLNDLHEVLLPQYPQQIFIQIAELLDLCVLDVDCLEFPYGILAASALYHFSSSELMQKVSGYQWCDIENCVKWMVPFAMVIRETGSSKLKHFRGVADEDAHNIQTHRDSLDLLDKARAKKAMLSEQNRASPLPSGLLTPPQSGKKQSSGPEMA
CDK3/Cyclin E (Homo sapiens), sequence (Q00526 whole entry, looked up): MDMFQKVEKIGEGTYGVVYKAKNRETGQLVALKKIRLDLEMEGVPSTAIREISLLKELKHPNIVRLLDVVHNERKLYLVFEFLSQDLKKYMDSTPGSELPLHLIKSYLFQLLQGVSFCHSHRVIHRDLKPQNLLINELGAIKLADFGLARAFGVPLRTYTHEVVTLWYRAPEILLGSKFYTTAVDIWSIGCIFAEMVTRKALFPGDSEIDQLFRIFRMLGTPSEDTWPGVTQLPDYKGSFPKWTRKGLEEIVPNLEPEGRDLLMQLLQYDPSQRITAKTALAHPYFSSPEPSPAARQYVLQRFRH

[24] = target: Receptor tyrosine-protein kinase erbB-4 (Homo sapiens) (UniProt Q15303); assay: Inhibition of human ERBB4 at 100 nM using poly[Glu:Tyr] (4:1) as substrate by [gamma-33P]-ATP assay
[25] = target: Phosphorylase b kinase gamma catalytic chain, liver/testis isoform (Homo sapiens) (UniProt P15735); assay: Inhibition of human PHKgamma2 at 100 nM using MBP as substrate by [gamma-33P]-ATP assay
Phosphorylase b kinase gamma catalytic chain, liver/testis isoform (Homo sapiens), sequence (P15735 whole entry, canonical isoform): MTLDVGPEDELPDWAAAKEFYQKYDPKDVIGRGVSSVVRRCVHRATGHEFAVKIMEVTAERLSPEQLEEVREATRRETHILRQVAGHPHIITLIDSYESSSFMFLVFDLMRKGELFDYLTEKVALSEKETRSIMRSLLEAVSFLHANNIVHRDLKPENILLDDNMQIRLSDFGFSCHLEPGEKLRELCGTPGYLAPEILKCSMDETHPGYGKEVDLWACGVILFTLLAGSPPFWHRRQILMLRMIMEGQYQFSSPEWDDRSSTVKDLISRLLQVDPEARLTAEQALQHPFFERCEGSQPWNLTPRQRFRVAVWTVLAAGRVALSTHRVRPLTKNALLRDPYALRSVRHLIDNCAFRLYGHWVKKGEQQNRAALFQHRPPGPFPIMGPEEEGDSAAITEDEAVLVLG

[26] = target: Serine/threonine-protein kinase 25 (Homo sapiens) (UniProt O00506); assay: Inhibition of human STK25 at 100 nM using MBP as substrate by [gamma-33P]-ATP assay
Serine/threonine-protein kinase 25 (Homo sapiens), sequence (O00506 whole entry, looked up): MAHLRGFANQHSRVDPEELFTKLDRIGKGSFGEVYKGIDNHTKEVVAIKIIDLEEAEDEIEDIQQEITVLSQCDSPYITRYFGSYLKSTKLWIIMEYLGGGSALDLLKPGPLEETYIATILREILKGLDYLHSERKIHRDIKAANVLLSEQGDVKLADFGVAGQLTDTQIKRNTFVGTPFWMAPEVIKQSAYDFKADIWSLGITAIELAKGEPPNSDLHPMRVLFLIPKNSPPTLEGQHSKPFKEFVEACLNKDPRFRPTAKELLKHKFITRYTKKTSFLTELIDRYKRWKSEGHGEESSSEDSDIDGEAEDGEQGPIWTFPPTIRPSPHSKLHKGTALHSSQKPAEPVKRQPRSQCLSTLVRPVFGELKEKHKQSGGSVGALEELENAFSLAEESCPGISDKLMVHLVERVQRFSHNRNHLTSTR

[27] = target: Aurora kinase A (Homo sapiens) (UniProt O14965); assay: Inhibition of human Aurora A at 100 nM using [H-LRRASLG] as substrate by [gamma-33P]-ATP assay
[28] = target: SRSF protein kinase 3 (Homo sapiens) (UniProt Q9UPE1); assay: Inhibition of human MSSK1 at 100 nM using GRSRSRSRSR as substrate by [gamma-33P]-ATP assay
[29] = target: Serine/threonine-protein kinase pim-1 (Homo sapiens) (UniProt P11309); assay: Inhibition of human PIM1 at 100 nM using KKRNRTLTK as substrate by [gamma-33P]-ATP assay
[30] = target: Bone morphogenetic protein receptor type-1A (Homo sapiens) (UniProt P36894); assay: Inhibition of human ALK3 at 100 nM using casein as substrate by [gamma-33P]-ATP assay

## COc1ccc(N2C(=O)COc3ccc(-c4cnc(OC)c(NS(=O)(=O)c5ccc(F)cc5)c4)cc32)cc1
[1]
  IC50: 13.9 nM
[2]
  inhibition: -5.81%
[3]
  inhibition: 4.25%
[4]
  inhibition: -2.23%
[5]
  inhibition: -3.45%
[6]
  inhibition: 9.02%
[7]
  inhibition: 10.4%
[8]
  inhibition: 8.12%
[9]
  inhibition: 29.8%
[10]
  inhibition: -1.06%
[11]
  inhibition: 12.7%
[12]
  inhibition: -2.98%
[13]
  inhibition: -2.65%
[14]
  inhibition: 0.03%
[15]
  inhibition: 8.4%
[16]
  inhibition: 0.16%
[17]
  inhibition: Dose-dependent effect
[18]
  inhibition: 10.1%
[19]
  inhibition: 5.36%
[20]
  inhibition: 10.1%
[21]
  inhibition: 1.46%
[22]
  inhibition: 25.8%
[23]
  inhibition: 2.71%
[24]
  inhibition: -0.06%
[25]
  inhibition: 20%
[26]
  inhibition: 0.52%
[27]
  inhibition: 3.17%
[28]
  inhibition: 8.87%
[29]
  inhibition: 19.4%
[30]
  inhibition: 3.37%
